Columns and labels:
Format in all cases: physicochemical
[1] = Elevated temperature stability of the actives in the liquid to powder suspension system of Example 13; conditions: Example 13 suspension
Experimental: The elevated temperature stability of the actives in the liquid to powder suspension system of Example 13 was determined using techniques known to those skilled in the art.

[2] = Solubility of tretinoin in ethanol, ester cosolvent or both
Experimental: The method of preparing the solution is not critical. Typically, the cosolvents are combined and the retinoid is added with stirring at room temperature until completely solubilized.
It has been experimentally determined that tretinoin is not soluble in ethanol in the ratios set forth in Examples A-D:
Isopropyl myristate (“IPM”) can be replaced with alkyl benzoate, isopropyl palmitate (“IPP”) or diisopropyl adipate to achieve the same results.
In Examples E-J where alcohol is not present, the retinoids are not soluble in the esters alone. This further confirms the present finding that retinoids can be solubilized in a small amount of alcohol by using specific cosolvents.
To effectively utilize the chamber in a chamber delivery system, one must balance the concentration of the actives in both chambers. This is necessary to achieve the final, active concentration, which is efficacious as well as compliant with the FDA. The present disclosure teaches how to prepare higher concentrations of tretinoin in solution for the small chamber by using lower concentrations of alcohol by means of cosolvents such a alkyl benzoate, isopropyl myristate, and isopropyl palmitate.

[3] = Elevated temperature stability of the actives in the oil in water emulsion of Example 10; conditions: Example 10 emulsion
Experimental: The elevated temperature stability of the actives in the oil in water emulsion of Example 10 was determined using techniques within the purview of those skilled in the art.

[4] = 25° C., 2 months, unit not given
[5] = 25° C., 3 months, unit not given
[6] = 30° C., 1 month, unit not given
[7] = 30° C., 2 months, unit not given
[8] = 30° C., 3 months, unit not given

CC1=C(/C=C/C(C)=C/C=C/C(C)=C/C(=O)O)C(C)(C)CCC1 [Tretinoin]
active content, 25° C., 1 month ([1]; 25° C., 1 month, unit not given): 0.0508
active content, 25° C., 2 months [1, 4]: 0.0499
active content, 25° C., 3 months [1, 5]: 0.0497
active content, 30° C., 1 month [1, 6]: 0.051
active content, 30° C., 2 months [1, 7]: 0.0498
active content, 30° C., 3 months [1, 8]: 0.0488
active content, Initial ([1]; initial): 0.0517%
dissolution in alcohol using ester cosolvent ([2]; 1 gram of tretinoin in 3 grams of alcohol (33.3 percent solution) with alkyl benzoate, isopropyl myristate, isopropyl palmitate or other esters): completely dissolved
solubility in ethanol ([2]; ethanol alone, tretinoin:ethanol ratios of Examples A-D): not soluble
solubility in ethanol plus cosolvent (clear solution) ([2]; same tretinoin:ethanol ratios, cosolvent IPM added (Examples 1-4)): completely dissolve into a clear solution
active content, 25° C., 2 months [3, 4]: 0.0497
active content, 25° C., 3 months [3, 5]: 0.0497
active content, 30° C., 1 month [3, 6]: 0.0490
active content, 30° C., 2 months [3, 7]: 0.0490
active content, 30° C., 3 months [3, 8]: 0.0490
active content, Initial ([3]; initial): 0.0497%

Source: patent publication US20060014834A1, “Retinoid solutions and formulations made therefrom” (priority 2004, published 2006)
